In one test the test system is phospho-GSK-3β. Put plainly: GSK 3b assay: Zn ionophore-enhanced phosphorylation of GSK-3β (AlphaScreen SureFire Phospho-GSK 3β (Ser9) kit) in SH-SY5Y cells. It counts as cell-based, human. Conditions: test compound 2 μM + ZnCl2 5 μM, 2 h at 37° C. Here is the method:
The phosphorylation of GSK-3β is enhanced when Zn is imported into a cell by a Zn ionophore. This property was measured for the compounds of the current invention and the data presented relative to the know Zn ionophore PBT2 using the following protocol.
The human neuroblastoma SH-SY5Y cells were obtained from Cell bank Australia (Catalogue number: 94030304). SH-SY5Y cell culture was maintained in DMEM/F12+15% FBS inside an incubator at 37° C. in the presence of 5% CO2. The cells were sub-cultured once a week and the media exchanged once during the week. Cells for the assay were plated at a density of 60,000 cells/well.
Stock solutions of the samples were prepared as a 5 mM stock in DMSO and a stock solution of 1 mM ZnCl2/3 mM Glutamic acid was prepared in water. Immediately before use the compounds were diluted 1:10 with water before being added to Locke's buffer in a treatment tube. Samples were subsequently treated with either distilled water or the ZnCl2/Glutamic acid solution to yield a treatment solution which has a final concentration of the test compound at 2 μM+/−ZnCl2 at 5 μM.
The culture media was aspirated from the wells and the media replaced with the treatment solution prepared above. In addition to the relative standard (PBT2+/−ZnCl2), control wells were also included consisting of +/−ZnCl2 at 5 μM with all treatments done in triplicate. The plate was incubated at 37° C. with the treatment solution for 2 h after which time the wells were aspirated and washed with sterile PBS.
Measurement of the change of phospho-GSK-3β was determined using an AlphaScreen® SureFire® Phospho-GSK […] (Ser9) Kit with the cells being processed as per the manufacturer's instructions using an initial incubation of 2 h/24° C. and a final incubation of 16 h/24° C.
The fluorescence was measured on an Enspire plate reader. […] Representative data is presented in Table 12 using the following ranges: A<50%, B 50-<100%, C 100-<150%, D>150%.
(Alpha assays give light when donor and acceptor beads are brought close together.)

A further test deals with BE(2)-M17 (M17) cells. Briefly: Method I: Measurement of Fe efflux from cells (57Fe-loaded, ICP-MS of media). Type of test: cell-based, human. Conditions: M17 cells loaded with 20 μM 57Fe, compound 20 μM, 2 h; for activation at 20 µM: Homo sapiens, read-out: Fe-Efflux (% increase of Fe in media relative to cell media in the absence of the compound). Here is the method:
Method I: Measurement of Fe Efflux from Cells
Compounds of the current invention were assessed for their ability to efflux iron (Fe) from a cell using the following protocol.
The human neuroblastoma line BE(2)-M17 (M17) cell cultures were acquired from Sigma Aldrich (Catalogue #: 95011816). M17 Cells were maintained in Opti-MEM reduced serum media supplemented with 10% fetal bovine serum (Bovogen, SFBSF) and passaged twice weekly. Cells were cultured at 37° C. in the presence of 5% CO2. Culture supplies were sourced from Thermo Fisher unless otherwise stated.
A solution of ^57Fe cold isotope was prepared by dissolving ^57Fe metal (>95% enrichment, Trace Sciences International) in concentrated HCl to give a final concentration of 573 mM. From this master solution, a 10 mM working solution was prepared in sterile water. The working solution was used within two months of preparation.
M17 cells were loaded with iron initially by seeding into 48-well plates at a density of 0.15×10^6 cells per well in 0.5 mL media. After 48 h, old media was discarded. Fresh media was supplemented with 20 μM ^57Fe isotope, from the 10 mM ^57Fe working solution. Cells received 0.2 mL of this ^57Fe enriched media and were returned to the incubator for 20 h. The ability of experimental compounds to efflux iron was determined by the dissolution of compounds in DMSO and diluted in Hanks' Balanced Salt Solution (HBSS) for treatment of M17 cells. After ^57Fe incubation, cells were rinsed twice with HBSS and treated with 0.15 mL trial compound for 2 h at a concentration of 20 μM. All assays included a relevant vehicle (0.4%-0.8% DMSO) as well as a positive control (20 μM). Following the treatment period, 0.1 mL of media was collected from cells and the extracellular ^57Fe content was analysed via inductively coupled mass spectrometry (ICP-MS, Agilent 7700x series instrument).
To perform this protocol the following supplies were purchased from Sigma Aldrich: anhydrous dimethyl sulfoxide (DMSO, Catalogue #: 276855), Hanks' Balanced Salt Solution supplemented with 20 mM HEPES and 4.2 mM Sodium Bicarbonate (HBSS, pH: 7.4, Catalogue #: H1387).
After 2 h the Fe levels in the media were measured and the increase determined as a percentage increase relative to the cell media in the absence of the compound.
Representative data is provided in Table 13 where the % Fe efflux for the specified compounds of the invention lie in the following ranges: A<30%, B 30-100%, C 100-150%; D>150%.

Each structure is given as a SMILES string.

As to `O=C(N/N=C1\CCCc2cccnc21)c1cccnc1` [Compound 1, (E)-N′-(6,7-Dihydroquinolin-8(5H)-ylidene)nicotinohydrazide], in the test with phospho-GSK-3β, the “GSK-Zn (signal as % of the positive standard PBT2+ZnCl2)” value was “A (A<50%)”. For the same molecule, the activation at 20 µM in the test with BE(2)-M17 (M17) cells is over 150%. The corresponding values for `O=C(N/N=C1\CCCc2cccnc21)c1ccccn1` [Compound 2] are “A (A<50%)” and 100 to 150%.

With `O=C(N/N=C1\CCCc2cccnc21)c1ccncc1` [Compound 3], in the test on phospho-GSK-3β, the “GSK-Zn (signal as % of the positive standard PBT2+ZnCl2)” value was “A (A<50%)”. For the same molecule, the activation at 20 µM in the test on BE(2)-M17 (M17) cells is over 150%. For the molecule `CCOc1ccccc1C(=O)N/N=C1\CCCc2cccnc21` [Compound 4], in the test with phospho-GSK-3β, the “GSK-Zn (signal as % of the positive standard PBT2+ZnCl2)” value is given as “A (A<50%)”. The activation at 20 µM in the test with BE(2)-M17 (M17) cells lay in the range of 30 to 100%.

With `COc1cccc(C(=O)N/N=C2\CCCc3cccnc32)c1` [Compound 6], the “GSK-Zn (signal as % of the positive standard PBT2+ZnCl2)” value in the test on phospho-GSK-3β was “A (A<50%)”. Also, the activation at 20 µM in the test on BE(2)-M17 (M17) cells is under 30%. Consider `COc1ccc(C(=O)N/N=C2\CCCc3cccnc32)cc1OC` [Compound 7], for which, in the test on phospho-GSK-3β, the “GSK-Zn (signal as % of the positive standard PBT2+ZnCl2)” value was “A (A<50%)”. Besides, the activation at 20 µM in the test on BE(2)-M17 (M17) cells lay within 30 to 100%. Taken in the same sequence, the figures for `COc1ccccc1C(=O)N/N=C1\CCCc2cccnc21` [Compound 8] were “A (A<50%)” and 100 to 150%. The corresponding values for `COc1ccc(C(=O)N/N=C2\CCCc3cccnc32)cc1` [Compound 9] are “A (A<50%)” and 30 to 100%. The corresponding values for `O=C(N/N=C1\CCCc2cccnc21)c1ccccc1` [Compound 10] are “B (B 50-<100%)” and 30 to 100%. With `O=C(N/N=C1\CCCc2cccnc21)c1ccccc1Cl` [Compound 15], the “GSK-Zn (signal as % of the positive standard PBT2+ZnCl2)” value in the test with phospho-GSK-3β was “D (D>150%)”. Besides, the activation at 20 µM with BE(2)-M17 (M17) cells was over 150%. Taken in the same sequence, the figures for `Cc1nnsc1C(=O)N/N=C1\CCCc2cccnc21` [Compound 23] were “C (C 100-<150%)” and over 150%. Turning to `CCOC(=O)C1CCc2cccnc2/C1=N/NC(=O)c1snnc1C` (centres unmarked) [Compound 31], the activation at 20 µM in the test on BE(2)-M17 (M17) cells fell in the range of 30 to 100%. On the same count and under the same terms, for `Cc1nc(C)c(C(=O)N/N=C2\CCCc3cccnc32)s1` [Compound 32] the value was 100 to 150%; for `Cc1cc(C(=O)N/N=C2\CCCc3cccnc32)no1` [Compound 33], over 150%.

Take `CN(C)CCOc1ccccc1C(=O)N/N=C1\CCCc2cccnc21.Cl` [Compound 39]: in the test with phospho-GSK-3β, the “GSK-Zn (signal as % of the positive standard PBT2+ZnCl2)” value is reported as “A (A<50%)”. Further, the activation at 20 µM with BE(2)-M17 (M17) cells was over 150%. In the case of `O=C(N/N=C1\CCCc2cccnc21)c1ccccc1OCCN1CCCCC1` [Compound 40], the activation at 20 µM in the test with BE(2)-M17 (M17) cells is over 150%. On the same count and under the same terms, for `O=C(N/N=C1\CCCc2cccnc21)c1ccccc1OCCCN1CCCCC1` [Compound 42] the value was over 150%. For the molecule `COc1cccc(C(=O)N/N=C(\C)c2ncccn2)c1` [Compound 47], the “GSK-Zn (signal as % of the positive standard PBT2+ZnCl2)” value with phospho-GSK-3β was “C (C 100-<150%)”. In addition, the activation at 20 µM in the test on BE(2)-M17 (M17) cells is 30 to 100%.

As to `C/C(=N\NC(=O)c1snnc1C)c1ncccn1` [Compound 48], the “GSK-Zn (signal as % of the positive standard PBT2+ZnCl2)” value in the test on phospho-GSK-3β is on record as “C (C 100-<150%)”. Also, the activation at 20 µM with BE(2)-M17 (M17) cells is over 150%. For `C/C(=N\NC(=O)c1cccc(C)c1)c1ncccn1` [Compound 49], the “GSK-Zn (signal as % of the positive standard PBT2+ZnCl2)” value in the test on phospho-GSK-3β is recorded as “B (B 50-<100%)”. Moreover, in the test with BE(2)-M17 (M17) cells, the activation at 20 µM is over 150%. In the case of `COc1cccc(C(=O)N/N=C(/c2ncccn2)C(C)C)c1` [Compound 50], the “GSK-Zn (signal as % of the positive standard PBT2+ZnCl2)” value in the test with phospho-GSK-3β was “C (C 100-<150%)”. The activation at 20 µM in the test on BE(2)-M17 (M17) cells is under 30%. As to `Cc1nnsc1C(=O)N/N=C(/c1ncccn1)C(C)C` [Compound 52], the “GSK-Zn (signal as % of the positive standard PBT2+ZnCl2)” value in the test with phospho-GSK-3β is listed as “B (B 50-<100%)”. The activation at 20 µM in the test on BE(2)-M17 (M17) cells fell in the range of 30 to 100%. For `COc1ccccc1C(=O)N/N=C(\C)c1cc(C)ccn1` [Compound 55], the activation at 20 µM in the test on BE(2)-M17 (M17) cells was in the range of 30 to 100%.

With `C/C(=N\NC(=O)c1snnc1C)c1nccnc1C` [Compound 57], the activation at 20 µM in the test with BE(2)-M17 (M17) cells lay within 100 to 150%. Same read-out and setting: the figure for `C/C(=N\NC(=O)c1cccc(C)c1)c1nccnc1C` [Compound 58] is under 30%. Consider `C/C(=N\NC(=O)c1snnc1C)c1ccc2ccccc2n1` [Compound 91], for which, in the test on phospho-GSK-3β, the “GSK-Zn (signal as % of the positive standard PBT2+ZnCl2)” value was “C (C 100-<150%)”. Besides, in the test on BE(2)-M17 (M17) cells, the activation at 20 µM lay in the range of 30 to 100%. Regarding `C/C(=N\NC(=O)c1cc2c(s1)-c1ccccc1OC2)c1nc(C)cs1` [Compound 101], the activation at 20 µM in the test with BE(2)-M17 (M17) cells is under 30%. The same measure, in the same setting: for `Cc1ccc(C(=O)N/N=C/c2nccn2C)cn1` [Compound 117] the value was under 30%. Take `Cc1cccc(C(=NNC(=O)c2ccccc2C)c2cccc(C)n2)n1` [Compound 122]: the “GSK-Zn (signal as % of the positive standard PBT2+ZnCl2)” value with phospho-GSK-3β is reported as “A (A<50%)”. Moreover, in the test on BE(2)-M17 (M17) cells, the activation at 20 µM is under 30%. Regarding `O=C(N/N=C/c1cn2ccccc2n1)c1cc2ccccc2s1` [Compound 138], the activation at 20 µM in the test on BE(2)-M17 (M17) cells was under 30%. Take `COC(=O)CN(/N=C(\C)c1ccccn1)C(=O)c1cc2ccccc2s1` [Compound 147, (E)-Methyl 2-(1-(benzo[b]thiophene-2-carbonyl)-2-(1-(pyridin-2-yl)ethylidene) hydrazinyl) Acetate]: the “Fe-Efflux (% increase of Fe in media relative to cell media in the absence of the compound)” value in the test with BE(2)-M17 (M17) cells was “A (A<30%)”. Regarding `O=C(N/N=C1\CCOc2cccnc21)c1cccnc1` [Compound 171, (E)-N′-(2,3-dihydro-4H-pyrano[3,2-b]pyridin-4-ylidene)nicotinohydrazide], in the test on BE(2)-M17 (M17) cells, the activation at 20 µM was under 30%.

Take `Cc1nnsc1C(=O)N/N=C1\CCOc2cccnc21` [Compound 172]: the activation at 20 µM with BE(2)-M17 (M17) cells lay within 100 to 150%. Consider `O=C(N/N=C1\CCOc2cccnc21)c1cccs1` [Compound 178], for which the activation at 20 µM in the test with BE(2)-M17 (M17) cells was in the range of 100 to 150%.

The record behind these values is patent US11603364B2, “Acyl hydrazone derivative compounds for treating disease” (Alterity Therapeutics Limited, priority 2020, dated 2023).
